Results: PMC7385619, “A triple action CDK4/6-PI3K-BET inhibitor with augmented cancer cell cytotoxicity” (Cell Discovery, 2020)

Tests used:
Assay in all cases: KINOMEscan assay (Eurofins DiscoverX)
Type in all cases: binding
[1] = biological target: T1, kinome (kinase panel) (Homo sapiens, UniProt Q8IYT8); conditions: ULK2; 1000 nM; read-out: Percent Control
T1 construct: purchased Eurofins DiscoverX

[2] = biological target: T2, kinome (kinase panel) (Homo sapiens, UniProt Q8NEV4); conditions: MYO3A; 1000 nM; read-out: Percent Control
T2 construct: purchased Eurofins DiscoverX

[3] = biological target: T3, kinome (kinase panel) (Homo sapiens, UniProt Q06187); conditions: BTK; 1000 nM; read-out: Percent Control
T3 construct: purchased Eurofins DiscoverX

[4] = biological target: T4, kinome (kinase panel) (Homo sapiens, UniProt P57058); conditions: HUNK; 1000 nM; read-out: Percent Control
T4 construct: purchased Eurofins DiscoverX

[5] = biological target: T5, kinome (kinase panel) (Homo sapiens, UniProt O43283); conditions: LZK (Entrez MAP3K13); 1000 nM; read-out: Percent Control
T5 construct: purchased Eurofins DiscoverX

[6] = biological target: T6, kinome (kinase panel) (Homo sapiens, UniProt Q9Y243); conditions: AKT3; 1000 nM; read-out: Percent Control
T6 construct: purchased Eurofins DiscoverX

[7] = biological target: T7, kinome (kinase panel) (Homo sapiens, UniProt Q96PN8); conditions: TSSK3; 1000 nM; read-out: Percent Control
T7 construct: purchased Eurofins DiscoverX

[8] = biological target: T8, kinome (kinase panel) (Homo sapiens, UniProt P19784); conditions: CSNK2A2; 1000 nM; read-out: Percent Control
T8 construct: purchased Eurofins DiscoverX

[9] = biological target: T9, kinome (kinase panel) (Homo sapiens, UniProt P08922); conditions: ROS1; 1000 nM; read-out: Percent Control
T9 construct: purchased Eurofins DiscoverX

[10] = biological target: T10, kinome (kinase panel) (Homo sapiens, UniProt P36897); conditions: TGFBR1; 1000 nM; read-out: Percent Control
T10 construct: purchased Eurofins DiscoverX

[11] = biological target: T11, kinome (kinase panel) (Homo sapiens, UniProt P10721, T670I/V559D); conditions: read-out: Percent Control
T11 construct: purchased Eurofins DiscoverX

[12] = biological target: T12, kinome (kinase panel) (Homo sapiens, UniProt Q8IVW4); conditions: CDKL3; 1000 nM; read-out: Percent Control
T12 construct: purchased Eurofins DiscoverX

[13] = biological target: T13, kinome (kinase panel) (Homo sapiens, UniProt Q9Y2U5); conditions: MAP3K2; 1000 nM; read-out: Percent Control
T13 construct: purchased Eurofins DiscoverX

[14] = biological target: T14, kinome (kinase panel) (Homo sapiens, UniProt Q99755); conditions: PIP5K1A; 1000 nM; read-out: Percent Control
T14 construct: purchased Eurofins DiscoverX

[15] = biological target: T15, kinome (kinase panel) (Homo sapiens, UniProt Q9Y5S2); conditions: MRCKB (Entrez CDC42BPB); 1000 nM; read-out: Percent Control
T15 construct: purchased Eurofins DiscoverX

[16] = biological target: T16, kinome (kinase panel) (Homo sapiens, UniProt Q9NYL2); conditions: ZAK; 1000 nM; read-out: Percent Control
T16 construct: purchased Eurofins DiscoverX

[17] = biological target: T17, kinome (kinase panel) (Homo sapiens, UniProt Q96D53); conditions: ADCK4; 1000 nM; read-out: Percent Control
T17 construct: purchased Eurofins DiscoverX

[18] = biological target: T18, kinome (kinase panel) (Homo sapiens, UniProt Q14289); conditions: PYK2 (Entrez PTK2B); 1000 nM; read-out: Percent Control
T18 construct: purchased Eurofins DiscoverX

[19] = biological target: T19, kinome (kinase panel) (Homo sapiens, UniProt Q9H422); conditions: HIPK3; 1000 nM; read-out: Percent Control
T19 construct: purchased Eurofins DiscoverX

[20] = biological target: T20, kinome (kinase panel) (Homo sapiens, UniProt Q15375); conditions: EPHA7; 1000 nM; read-out: Percent Control
T20 construct: purchased Eurofins DiscoverX

[21] = biological target: T21, kinome (kinase panel) (Homo sapiens, UniProt Q8IY84); conditions: NIM1 (Entrez MGC42105); 1000 nM; read-out: Percent Control
T21 construct: purchased Eurofins DiscoverX

[22] = biological target: T22, kinome (kinase panel) (Plasmodium falciparum, UniProt P61075); conditions: PFPK5(P.falciparum) (Entrez MAL13P1.279); 1000 nM; read-out: Percent Control
T22 construct: purchased Eurofins DiscoverX

[23] = biological target: T23, kinome (kinase panel) (Homo sapiens, UniProt Q96RR4); conditions: CAMKK2; 1000 nM; read-out: Percent Control
T23 construct: purchased Eurofins DiscoverX

[24] = biological target: T24, kinome (kinase panel) (Homo sapiens, UniProt Q06418); conditions: TYRO3; 1000 nM; read-out: Percent Control
T24 construct: purchased Eurofins DiscoverX

[25] = biological target: T25, kinome (kinase panel) (Homo sapiens, UniProt Q8IW41); conditions: MAPKAPK5; 1000 nM; read-out: Percent Control
T25 construct: purchased Eurofins DiscoverX

[26] = biological target: T26, kinome (kinase panel) (Homo sapiens, UniProt Q04912); conditions: MST1R; 1000 nM; read-out: Percent Control
T26 construct: purchased Eurofins DiscoverX

[27] = biological target: T27, kinome (kinase panel) (Homo sapiens, UniProt Q9Y2H1); conditions: NDR2 (Entrez STK38L); 1000 nM; read-out: Percent Control
T27 construct: purchased Eurofins DiscoverX

[28] = biological target: T28, kinome (kinase panel) (Homo sapiens, UniProt Q8WTQ7); conditions: GRK7; 1000 nM; read-out: Percent Control
T28 construct: purchased Eurofins DiscoverX

[29] = biological target: T29, kinome (kinase panel) (Homo sapiens, UniProt Q8TDR2); conditions: STK35; 1000 nM; read-out: Percent Control
T29 construct: purchased Eurofins DiscoverX

[30] = biological target: T30, kinome (kinase panel) (Homo sapiens, UniProt Q9H2K8); conditions: TAOK3; 1000 nM; read-out: Percent Control
T30 construct: purchased Eurofins DiscoverX

[31] = biological target: T31, kinome (kinase panel) (Homo sapiens, UniProt P36888, N841I); conditions: […]; 1000 nM; read-out: Percent Control
T31 construct: purchased Eurofins DiscoverX

[32] = biological target: T32, kinome (kinase panel) (Homo sapiens, UniProt Q15759); conditions: p38-beta (Entrez MAPK11); 1000 nM; read-out: Percent Control
T32 construct: purchased Eurofins DiscoverX

T23 sequence (Q96RR4 whole entry): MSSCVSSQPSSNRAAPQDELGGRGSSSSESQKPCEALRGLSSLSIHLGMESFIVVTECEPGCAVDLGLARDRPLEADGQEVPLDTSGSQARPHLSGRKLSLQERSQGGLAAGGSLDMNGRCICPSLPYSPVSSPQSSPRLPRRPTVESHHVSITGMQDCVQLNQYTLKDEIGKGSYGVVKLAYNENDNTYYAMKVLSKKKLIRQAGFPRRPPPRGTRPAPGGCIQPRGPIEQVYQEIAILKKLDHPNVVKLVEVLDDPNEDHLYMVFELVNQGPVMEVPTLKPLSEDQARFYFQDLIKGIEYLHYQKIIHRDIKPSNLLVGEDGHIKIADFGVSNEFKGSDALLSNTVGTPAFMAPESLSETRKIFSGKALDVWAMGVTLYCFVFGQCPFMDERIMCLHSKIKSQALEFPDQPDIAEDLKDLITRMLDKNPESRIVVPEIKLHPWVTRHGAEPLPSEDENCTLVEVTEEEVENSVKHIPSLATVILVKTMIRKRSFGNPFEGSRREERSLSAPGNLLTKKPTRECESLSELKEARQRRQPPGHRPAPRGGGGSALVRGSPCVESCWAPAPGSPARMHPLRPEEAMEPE
T10 sequence (P36897 34-503): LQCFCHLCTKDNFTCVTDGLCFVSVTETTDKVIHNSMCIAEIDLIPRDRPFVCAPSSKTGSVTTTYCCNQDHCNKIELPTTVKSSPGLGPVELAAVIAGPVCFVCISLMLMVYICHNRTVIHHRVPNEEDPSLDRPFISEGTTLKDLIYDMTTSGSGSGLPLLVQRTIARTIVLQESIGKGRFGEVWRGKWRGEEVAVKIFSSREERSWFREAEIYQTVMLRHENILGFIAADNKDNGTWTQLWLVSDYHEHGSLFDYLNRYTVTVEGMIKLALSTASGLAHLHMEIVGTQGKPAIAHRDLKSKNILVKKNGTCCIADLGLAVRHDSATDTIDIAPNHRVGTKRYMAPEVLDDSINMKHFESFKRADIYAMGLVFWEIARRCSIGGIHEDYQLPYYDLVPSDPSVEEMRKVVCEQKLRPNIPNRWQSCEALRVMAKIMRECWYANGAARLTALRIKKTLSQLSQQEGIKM
T19 sequence (Q9H422 whole entry): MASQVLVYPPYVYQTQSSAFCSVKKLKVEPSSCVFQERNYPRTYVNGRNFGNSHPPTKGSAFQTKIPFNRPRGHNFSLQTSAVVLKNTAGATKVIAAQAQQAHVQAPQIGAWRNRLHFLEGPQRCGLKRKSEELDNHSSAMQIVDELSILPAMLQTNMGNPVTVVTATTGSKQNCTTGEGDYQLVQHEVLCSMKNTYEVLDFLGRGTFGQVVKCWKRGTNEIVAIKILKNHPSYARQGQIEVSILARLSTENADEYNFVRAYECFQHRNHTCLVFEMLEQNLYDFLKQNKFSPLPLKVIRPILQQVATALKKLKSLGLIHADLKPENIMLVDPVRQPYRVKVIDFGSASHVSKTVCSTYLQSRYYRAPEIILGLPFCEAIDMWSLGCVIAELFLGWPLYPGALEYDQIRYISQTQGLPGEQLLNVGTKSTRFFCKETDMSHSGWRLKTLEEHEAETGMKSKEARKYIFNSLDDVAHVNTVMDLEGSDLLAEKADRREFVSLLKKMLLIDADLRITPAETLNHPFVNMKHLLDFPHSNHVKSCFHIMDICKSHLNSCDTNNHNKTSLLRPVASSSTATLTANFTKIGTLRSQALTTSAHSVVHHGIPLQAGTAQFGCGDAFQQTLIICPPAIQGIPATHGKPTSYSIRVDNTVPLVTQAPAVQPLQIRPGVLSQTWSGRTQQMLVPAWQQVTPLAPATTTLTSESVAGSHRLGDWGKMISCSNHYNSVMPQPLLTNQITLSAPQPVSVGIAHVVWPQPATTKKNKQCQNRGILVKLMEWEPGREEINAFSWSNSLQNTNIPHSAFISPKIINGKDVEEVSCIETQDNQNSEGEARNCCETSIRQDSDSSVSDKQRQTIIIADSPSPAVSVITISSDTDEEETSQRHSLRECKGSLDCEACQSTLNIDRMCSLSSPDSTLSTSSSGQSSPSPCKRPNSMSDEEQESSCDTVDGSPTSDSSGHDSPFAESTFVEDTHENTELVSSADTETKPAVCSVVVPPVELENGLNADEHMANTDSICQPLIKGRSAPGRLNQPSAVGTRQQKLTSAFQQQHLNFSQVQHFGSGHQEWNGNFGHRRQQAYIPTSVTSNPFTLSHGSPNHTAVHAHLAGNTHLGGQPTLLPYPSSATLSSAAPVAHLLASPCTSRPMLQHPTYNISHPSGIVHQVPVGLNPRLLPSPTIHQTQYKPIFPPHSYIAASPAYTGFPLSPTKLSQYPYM
T3 sequence (Q06187 whole entry): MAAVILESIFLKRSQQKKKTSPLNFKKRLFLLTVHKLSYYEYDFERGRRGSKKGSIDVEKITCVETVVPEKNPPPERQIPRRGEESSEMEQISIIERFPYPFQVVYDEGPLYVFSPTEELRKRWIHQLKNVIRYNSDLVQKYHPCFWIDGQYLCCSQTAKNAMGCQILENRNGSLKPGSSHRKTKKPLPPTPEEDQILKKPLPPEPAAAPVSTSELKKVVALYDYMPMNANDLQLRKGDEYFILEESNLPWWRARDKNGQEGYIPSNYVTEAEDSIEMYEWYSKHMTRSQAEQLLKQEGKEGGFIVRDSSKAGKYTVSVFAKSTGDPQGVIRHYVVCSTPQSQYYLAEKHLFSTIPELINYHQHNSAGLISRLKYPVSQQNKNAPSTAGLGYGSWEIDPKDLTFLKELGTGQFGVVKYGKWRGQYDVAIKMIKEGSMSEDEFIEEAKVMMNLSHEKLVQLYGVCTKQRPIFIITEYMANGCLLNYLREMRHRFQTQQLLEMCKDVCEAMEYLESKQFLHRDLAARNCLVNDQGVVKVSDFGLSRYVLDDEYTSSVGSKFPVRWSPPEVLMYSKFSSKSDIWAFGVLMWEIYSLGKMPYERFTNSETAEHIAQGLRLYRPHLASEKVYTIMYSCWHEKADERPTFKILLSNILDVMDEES
T6 sequence (Q9Y243 whole entry): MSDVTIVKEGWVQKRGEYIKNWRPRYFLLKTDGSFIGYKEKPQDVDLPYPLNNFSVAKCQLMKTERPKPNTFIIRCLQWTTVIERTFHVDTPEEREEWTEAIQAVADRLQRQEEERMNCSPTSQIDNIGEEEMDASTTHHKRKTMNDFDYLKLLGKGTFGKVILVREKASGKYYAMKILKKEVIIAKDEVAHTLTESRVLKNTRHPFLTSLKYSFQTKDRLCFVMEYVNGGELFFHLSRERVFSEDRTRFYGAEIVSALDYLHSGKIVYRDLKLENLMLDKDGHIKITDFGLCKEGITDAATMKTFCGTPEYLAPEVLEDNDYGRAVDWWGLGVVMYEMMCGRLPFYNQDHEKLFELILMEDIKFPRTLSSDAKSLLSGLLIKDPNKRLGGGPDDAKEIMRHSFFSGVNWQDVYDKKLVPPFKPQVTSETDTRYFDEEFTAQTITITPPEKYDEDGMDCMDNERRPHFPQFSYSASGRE
T18 sequence (Q14289 whole entry): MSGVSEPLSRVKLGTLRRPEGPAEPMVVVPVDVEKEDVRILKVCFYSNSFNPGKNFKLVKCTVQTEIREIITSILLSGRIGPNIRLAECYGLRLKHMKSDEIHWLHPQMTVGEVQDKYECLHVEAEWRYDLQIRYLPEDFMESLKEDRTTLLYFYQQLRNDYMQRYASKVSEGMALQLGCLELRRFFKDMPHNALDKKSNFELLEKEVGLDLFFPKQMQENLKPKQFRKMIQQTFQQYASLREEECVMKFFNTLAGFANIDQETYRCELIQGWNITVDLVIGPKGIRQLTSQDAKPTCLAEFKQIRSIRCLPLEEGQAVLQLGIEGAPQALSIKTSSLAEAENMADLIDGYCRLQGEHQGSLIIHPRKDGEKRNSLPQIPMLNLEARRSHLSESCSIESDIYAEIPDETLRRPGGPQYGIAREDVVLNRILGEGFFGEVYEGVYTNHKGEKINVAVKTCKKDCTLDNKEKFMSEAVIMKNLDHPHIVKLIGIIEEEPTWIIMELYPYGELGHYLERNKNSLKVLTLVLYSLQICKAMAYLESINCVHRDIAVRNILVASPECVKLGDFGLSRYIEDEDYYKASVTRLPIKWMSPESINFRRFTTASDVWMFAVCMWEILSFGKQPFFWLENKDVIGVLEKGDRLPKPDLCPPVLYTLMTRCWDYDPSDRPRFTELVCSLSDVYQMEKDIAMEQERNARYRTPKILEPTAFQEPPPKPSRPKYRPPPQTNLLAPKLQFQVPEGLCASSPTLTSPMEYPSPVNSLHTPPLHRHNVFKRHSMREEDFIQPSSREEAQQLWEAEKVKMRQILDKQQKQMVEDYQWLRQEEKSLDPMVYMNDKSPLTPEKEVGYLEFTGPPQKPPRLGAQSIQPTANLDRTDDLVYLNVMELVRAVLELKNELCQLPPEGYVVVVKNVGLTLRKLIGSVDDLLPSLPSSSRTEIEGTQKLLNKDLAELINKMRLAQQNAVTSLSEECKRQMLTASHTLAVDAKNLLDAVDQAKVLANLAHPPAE
T28 sequence (Q8WTQ7 whole entry): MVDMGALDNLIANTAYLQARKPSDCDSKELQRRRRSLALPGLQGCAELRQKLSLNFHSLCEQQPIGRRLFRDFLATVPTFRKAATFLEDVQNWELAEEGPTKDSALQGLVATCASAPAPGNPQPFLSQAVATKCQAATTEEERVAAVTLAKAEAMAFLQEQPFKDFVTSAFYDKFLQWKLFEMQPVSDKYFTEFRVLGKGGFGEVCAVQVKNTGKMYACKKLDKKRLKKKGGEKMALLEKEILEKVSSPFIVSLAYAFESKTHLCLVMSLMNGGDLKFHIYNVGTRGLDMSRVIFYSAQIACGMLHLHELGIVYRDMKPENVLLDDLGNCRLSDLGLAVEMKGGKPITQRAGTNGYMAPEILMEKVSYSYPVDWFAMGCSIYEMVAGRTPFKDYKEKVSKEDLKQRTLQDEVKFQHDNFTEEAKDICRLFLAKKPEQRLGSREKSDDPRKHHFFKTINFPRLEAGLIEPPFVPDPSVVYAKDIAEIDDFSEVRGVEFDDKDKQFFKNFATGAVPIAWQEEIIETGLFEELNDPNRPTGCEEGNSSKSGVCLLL

CN(C)C(=O)c1cc2cnc(Nc3ccc(-c4csc5c(=O)cc(N6CCOCC6)oc45)cc3)nc2n1C1CCCC1 [SRX3177]
remaining binding at 1 µM [1]: 79% | remaining binding at 1 µM [2]: 97% | remaining binding at 1 µM [3]: 67% | remaining binding at 1 µM [4]: 100% | remaining binding at 1 µM [5]: 48% | remaining binding at 1 µM [6]: 100% | remaining binding at 1 µM [7]: 100% | remaining binding at 1 µM [8]: 5.7% | remaining binding at 1 µM [9]: 96% | remaining binding at 1 µM [10]: 100% | remaining binding at 1 µM [11]: 100% | remaining binding at 1 µM [12]: 91% | remaining binding at 1 µM [13]: 72% | remaining binding at 1 µM [14]: 21% | remaining binding at 1 µM [15]: 96% | remaining binding at 1 µM [16]: 80% | remaining binding at 1 µM [17]: 43% | remaining binding at 1 µM [18]: 100% | remaining binding at 1 µM [19]: 77% | remaining binding at 1 µM [20]: 100% | remaining binding at 1 µM [21]: 69% | remaining binding at 1 µM [22]: 96% | remaining binding at 1 µM [23]: 36% | remaining binding at 1 µM [24]: 100% | remaining binding at 1 µM [25]: 72% | remaining binding at 1 µM [26]: 77% | remaining binding at 1 µM [27]: 90% | remaining binding at 1 µM [28]: 100% | remaining binding at 1 µM [29]: 100% | remaining binding at 1 µM [30]: 2.5% | remaining binding at 1 µM [31]: 7.2% | remaining binding at 1 µM [32]: 100%
